From ChEMBL document CHEMBL5338769, “Discovery of Norisoboldine Analogue III11 as a Novel and Potent Aryl Hydrocarbon Receptor Agonist for the Treatment of Ulcerative Colitis” (J Med Chem, 2023) come the findings set out here.

Calls of active or inactive are those of the source. The calls are words filed in the database; no cut-off is given here.

The subject of data set [1] is Mus musculus. Nature of the data set: Anti-colitis activity in DSS-induced ulcerative colitis C57BL/6 mouse model assessed as increase in CD4+CD25+Foxp3+ Treg cell ratio in mesenteric lymph nodes at 20 mg/kg, po administered once a day for 10 days by flow cytometric analysis (reference value: 4.5 %). As to conditions: time 10 day. It is filed as functional.
The target of data set [2] is T1, Aryl hydrocarbon receptor (Mus musculus, UniProt P30561).
T1 sequence (P30561 whole entry): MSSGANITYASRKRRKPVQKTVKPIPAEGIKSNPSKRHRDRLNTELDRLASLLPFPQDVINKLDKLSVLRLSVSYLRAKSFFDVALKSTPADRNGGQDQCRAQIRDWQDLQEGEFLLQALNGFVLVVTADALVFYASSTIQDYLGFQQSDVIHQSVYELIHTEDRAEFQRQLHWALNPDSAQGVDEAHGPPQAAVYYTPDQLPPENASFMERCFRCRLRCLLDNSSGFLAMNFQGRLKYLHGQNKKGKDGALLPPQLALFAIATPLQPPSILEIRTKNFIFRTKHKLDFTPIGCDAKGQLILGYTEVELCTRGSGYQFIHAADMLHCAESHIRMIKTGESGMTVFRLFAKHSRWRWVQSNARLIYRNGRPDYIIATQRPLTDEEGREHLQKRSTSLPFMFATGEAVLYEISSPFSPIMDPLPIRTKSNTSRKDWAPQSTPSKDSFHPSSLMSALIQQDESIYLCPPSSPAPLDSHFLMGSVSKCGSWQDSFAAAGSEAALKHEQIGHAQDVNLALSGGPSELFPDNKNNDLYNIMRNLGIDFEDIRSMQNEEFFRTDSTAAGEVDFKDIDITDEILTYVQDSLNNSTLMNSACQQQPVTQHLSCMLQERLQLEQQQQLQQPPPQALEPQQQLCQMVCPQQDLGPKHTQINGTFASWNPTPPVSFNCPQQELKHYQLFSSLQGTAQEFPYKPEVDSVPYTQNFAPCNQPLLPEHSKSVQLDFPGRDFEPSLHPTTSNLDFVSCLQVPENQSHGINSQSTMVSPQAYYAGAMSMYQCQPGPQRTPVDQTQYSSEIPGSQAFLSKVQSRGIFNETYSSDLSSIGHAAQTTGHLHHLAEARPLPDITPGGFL
The experiment in a line: Activation of AhR transcription in C57BL/6 mouse naive T cells assessed as increase in UGT1A1 mRNA expression at 1 to 3 uM by qRT-PCR analysis. It counts as cell-based. To be noted: t cell, dose 1-3 µM.

For data set [3], the system named is EL4. Nature of the data set: Cytotoxicity against mouse EL4 cells assessed as inhibition of cell proliferation incubated for 72 hrs by MTT assay. It counts as functional, cell-based. To be noted: EL4, 72 h.
Data set [4] is described as follows: Oral bioavailability in Sprague-Dawley rat at 30 mg/kg measured upto 1440 min by LC-MS/MS analysis. As to conditions: in vivo. It is filed as ADME, organism-based.
For data set [5], the system named is Mus musculus. The experiment in a line: Anti-colitis activity against DSS-induced ulcerative colitis C57BL/6 mouse model assessed as amelioration of epithelial change score by measuring loss of goblet cells in colon at 10 to 20 mg/kg, po administered once a day for 10 days by H&E staining based histopathological analysis. It is filed as functional, organism-based. As to conditions: dose 10-20 mg/kg, time 10.0 day.

Data set [6] is described as follows: Unbound drug concentration in rat plasma at 48.02 ug/ml of total concentration measured after 12 hrs by ultrafiltration based HPLC analysis. As to conditions: dose 48.02 µg/ml. It counts as ADME, cell-free.
The test system of data set [7] is EL4. Nature of the data set: Cytotoxicity against mouse EL4 cells assessed as reduction of cell vaibility at 10 uM incubated for 72 hrs by MTT assay. It counts as functional, cell-based.
Data set [8] deals with Mus musculus. The experiment in a line: Anti-colitis activity in DSS-induced ulcerative colitis C57BL/6 mouse model assessed as CD4+CD25+Foxp3+ Treg cell percentage in spleen at 10 mg/kg, po administered once a day for 10 days by flow cytometric analysis (reference value: 3.3%). It is filed as functional. As to conditions: time 10 day.
Data set [9] has as its target T1, Aryl hydrocarbon receptor. Nature of the data set: Activation of AhR transcription in C57BL/6 mouse naive T cells assessed as increase in AhRR mRNA expression at 1 to 3 uM by qRT-PCR analysis. It is filed as cell-based. As to conditions: t cell, dose 1-3 µM.

In the case of `COc1cc2c3c(c1)-c1ccc(O)cc1CC3NCC2` (centres undefined), the Activity is listed as 8.5% in the data set on Mus musculus [1], “Active” in data set [2], 3.2% with Mus musculus [8] and “Active” in [9]. For the same molecule, the IC50 in the data set on EL4 [3] came out at 28 µM. The same molecule yielded a bioavailability in [4] of 87.4%. In addition, the result with Mus musculus [5] was Active. Further, the “Cp(f)” value in [6] is 6670 ng/mL. The result in the data set on EL4 [7] was inactive.
